The target in experiment [1] is T1, BRD9 (Homo sapiens, UniProt Q9H8M2).
T1 sequence (Q9H8M2 1-597): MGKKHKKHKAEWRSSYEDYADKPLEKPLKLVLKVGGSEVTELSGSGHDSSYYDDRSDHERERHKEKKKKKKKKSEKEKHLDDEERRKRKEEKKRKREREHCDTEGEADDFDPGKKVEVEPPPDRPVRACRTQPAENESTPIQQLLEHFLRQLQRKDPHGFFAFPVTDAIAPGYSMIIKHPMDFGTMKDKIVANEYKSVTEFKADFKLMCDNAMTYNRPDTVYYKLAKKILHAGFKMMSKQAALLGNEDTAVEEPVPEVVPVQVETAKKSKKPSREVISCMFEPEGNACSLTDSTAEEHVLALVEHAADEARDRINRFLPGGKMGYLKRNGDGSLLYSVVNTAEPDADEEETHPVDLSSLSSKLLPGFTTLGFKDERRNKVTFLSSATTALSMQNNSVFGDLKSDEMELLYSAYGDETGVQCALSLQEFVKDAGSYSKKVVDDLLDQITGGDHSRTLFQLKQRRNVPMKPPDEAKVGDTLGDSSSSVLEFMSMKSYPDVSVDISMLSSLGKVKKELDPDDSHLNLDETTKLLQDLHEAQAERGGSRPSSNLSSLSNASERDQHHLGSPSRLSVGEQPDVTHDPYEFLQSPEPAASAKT
Put plainly: Degradation of BRD9 (IF), immunofluorescence in MV4-11 cells, 24 hours (Assay Protocol 2). Further details: A suspension of MV4-11 cells (ATCC CRL-9591) was prepared; host or cells: MV4-11. The experiment is classed as cell-based. The procedure, abridged: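 MV4-11 cells treated with compound 24 h at 37° C., then fixed, permeabilised and immunostained for BRD9 (anti-BRD9 E4Q3F, Alexa 647 secondary, Hoechst counterstain). High-content imaging quantified nuclear BRD9 signal; % BRD9 remaining normalised to DMSO and 100 nM CFT-8634 controls.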

The target in experiment [2] is T1, BRD9. Put plainly: BRD9 degradation, HiBiT-BRD9 KI HEK293 (LgBiT) cells, NanoGlo Lytic Endpoint assay (Assay Protocol 1). The experiment is classed as cell-based. As to conditions: BRD9 degradation; for Dmax / Dmax at 1 µM: HEK293; for Dmax at 1 µM: 1 μM compound at 6 h of treatment, read-out: Assay 1 Dmax. In outline:
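HiBiT-tagged BRD9 knock-in HEK293 (LgBiT) cells exposed to compounds for 6 h at 37 °C, 5% CO2. Residual BRD9 measured by HiBiT lytic luminescence. % BRD9 remaining normalised to DMSO-treated cells (high) and no-cell wells (low).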
On the technique in general: With HiBiT, luminescence reflects the tagged protein that the partner subunit can reach.

Where [3] appears, read: MV4-11, Assay protocol 2, BRD9 degradation, read-out: Dmax.
[4] abbreviates: Assay protocol 1, read-out: Dmax.
The mark [5] stands for this setting: MV4-11, Table 4, BRD9 degradation, determined according to Assay Protocol 2, read-out: Dmax^2.
Setting [6] is: Table 4, BRD9 degradation, determined according to Assay Protocol 2, read-out: DC50^2.
Setting [7] is: Table 4, determined according to Assay Protocol 1, read-out: Dmax^1.
[8] abbreviates: Table 4, determined according to Assay Protocol 1, read-out: DC50^1.
Where [9] appears, read: Assay protocol 2, BRD9 degradation, read-out: DC50.
Setting [10] is: Assay protocol 1, read-out: DC50.
Where [11] appears, read: MV4-11, 24 h, Table 2, BRD9 degradation (IF), Assay Protocol 2, MV4-11 cells, read-out: Assay 2 DCmax.
[12] abbreviates: Table 2, BRD9 degradation (IF), Assay Protocol 2, MV4-11 cells, read-out: Assay 2 DC50.
[13] abbreviates: Table 2, Assay Protocol 1, 6 h of treatment, read-out: Assay 1 DC50.

Each structure is given as a SMILES string.

Usually DC50 stands for the concentration giving 50% degradation.

`COc1cc(-c2cn(C)c(=O)c3ccsc23)cc(OC)c1CN1CCN(Cc2cccc3c2CCN(C(=O)/C(C#N)=C/C(C)(C)C)C3C)CC1` (mixture of isomers) [Compound B59, (E/Z)-2-(5-((4-(2,6-dimethoxy-4-(5-methyl-4-oxo-4,5-dihydrothieno[3,2-c]pyridin-7-yl)benzyl)piperazin-1-yl)methyl)-1-methyl-1,2,3,4-tetrahydroisoquinoline-2-carbonyl)-4,4-dimethypent-2-enenitrile]: the Dmax on BRD9 [1] (setting [3]) and at BRD9 [2] (setting [4]) was 40 to 70% throughout.

Turning to `COc1cc(-c2cn(C)c(=O)c(C)c2C)cc(OC)c1CN1CCN(C(=O)C2CCCN(C(=O)/C(C#N)=C/C(C)(C)C)C2)CC1` (centres unmarked) [Compound B206], the Dmax was 50 to 70% at BRD9 [1] (setting [5]) and above 70% on BRD9 [2] (setting [7]). Also, the DC50 at BRD9 [1] (setting [6]) and at BRD9 [2] (setting [8]) was 25 to 200 nM throughout.

Consider `COc1cc(-c2cn(C)c(=O)c(C)c2C)cc(OC)c1CN1CCN(Cc2cccc3c2CCN(C(=O)/C(C#N)=C/c2ccnc(C)n2)C3C)CC1` (mixture of isomers) [Compound B9, (E/Z)-2-(5-((4-(2,6-dimethoxy-4-(1,4,5-trimethyl-6-oxo-1,6-dihydropyridin-3-yl)benzyl)piperazin-1-yl)methyl)-1-methyl-1,2,3,4-tetrahydroisoquinoline-2-carbonyl)-3-(2-methylpyrimidin-4-yl)acrylonitrile], for which the DC50 on BRD9 [1] (setting [9]) and at BRD9 [2] (setting [10]) was below 1.25 nM in each case. In addition, the Dmax on BRD9 [1] (setting [3]) and on BRD9 [2] (setting [4]) was above 75% throughout.

With `COc1cc(-c2cn(C)c(=O)c(C)c2C)cc(OC)c1CN1CCN(Cc2cccc(C3CCCN3C(=O)/C(C#N)=C/c3cccc(C(F)(F)F)n3)c2)CC1` (centres unmarked) [Compound B26], the DC50 was below 1.25 nM on BRD9 [1] (setting [9]) and 1.25 to 10 nM on BRD9 [2] (setting [10]). Also, the Dmax on BRD9 [1] (setting [3]) and at BRD9 [2] (setting [4]) was above 75% each time.

Turning to `COc1cc(-c2cn(C)c(=O)c(C)c2C)cc(OC)c1CN(C)Cc1ccc2c(c1)CCN(C(=O)/C(C#N)=C/c1nc3ccccc3s1)C2C` (mixture of isomers) [Compound B21, (E/Z)-3-(benzo[d]thiazol-2-yl)-2-(6-(((2,6-dimethoxy-4-(1,4,5-trimethyl-6-oxo-1,6-dihydropyridin-3-yl)benzyl)(methyl)amino)methyl)-1-methyl-1,2,3,4-tetrahydroisoquinoline-2-carbonyl)acrylonitrile], the values for the DC50 at BRD9 [1] (setting [9]) and at BRD9 [2] (setting [10]) were below 1.25 nM and 1.25 to 10 nM, respectively. Moreover, the Dmax on BRD9 [1] (setting [3]) and on BRD9 [2] (setting [4]) was 40 to 70% in each case.

Regarding `COc1cc(-c2cn(C)c(=O)c3cnccc23)cc(OC)c1CN1CC2CCC(C1)N2Cc1cccc2c1CCN(C(=O)/C(C#N)=C/C(C)(C)C)C2C` (mixture of isomers) [Compound A48, (E/Z)-2-(5-((3-(2,6-dimethoxy-4-(2-methyl-1-oxo-1,2-dihydro-2,7-naphthyridin-4-yl)benzyl)-3,8-diazabicyclo[3.2.1]octan-8-yl)methyl)-1-methyl-1,2,3,4-tetrahydroisoquinoline-2-carbonyl)-4,4-dimethylpent-2-enenitrile], the Dmax at BRD9 [1] (setting [11]) was in the range of 40 to 70%. Also, the 50% degradation concentration (DC50) on BRD9 [1] (setting [12]) is below 1.25 nM; on BRD9 [2] (setting [13]), 1.25 to 10 nM. Further, the Dmax at 1 µM at BRD9 [2] (Table 2, Assay Protocol 1) was above 75%.

As for `COc1cc(-c2cn(C)c(=O)c(C)c2C)cc(OC)c1CN1CCC2(C1)CN(c1cccc3c1CCN(C(=O)/C(C#N)=C/C(C)(C)C)C3C)C2` (mixture of isomers) [Compound B40, (E/Z)-2-(5-(6-(2,6-dimethoxy-4-(1,4,5-trimethyl-6-oxo-1,6-dihydropyridin-3-yl)benzyl)-2,6-diazaspiro[3.4]octan-2-yl)-1-methyl-1,2,3,4-tetrahydroisoquinoline-2-carbonyl)-4,4-dimethylpent-2-enenitrile], the DC50 at BRD9 [1] (setting [9]) and on BRD9 [2] (setting [10]) was below 1.25 nM throughout. Also, the Dmax on BRD9 [1] (setting [3]) and at BRD9 [2] (setting [4]) was 40 to 70% each time.

For `COc1cc(-c2cn(C)c(=O)c(C)c2C)cc(OC)c1CN1CCN(Cc2cccc3c2CCN(C(=O)/C(C#N)=C/C2(C)CC2)C3C)CC1` (mixture of isomers) [Compound C27, (E/Z)-2-(5-((4-(2,6-dimethoxy-4-(1,4,5-trimethyl-6-oxo-1,6-dihydropyridin-3-yl)benzyl)piperazin-1-yl)methyl)-1-methyl-1,2,3,4-tetrahydroisoquinoline-2-carbonyl)-3-(1-methylcyclopropyl)acrylonitrile], the DC50 at BRD9 [1] (setting [9]) and on BRD9 [2] (setting [10]) was above 1000 nM each time. The Dmax on BRD9 [1] (setting [3]) and on BRD9 [2] (setting [4]) was 40 to 70% in each case.

In the case of `COc1cc(-c2cn(C)c(=O)c3cnccc23)cc(OC)c1CN1CC2CC(C1)N2Cc1cccc2c1CCN(C(=O)/C(C#N)=C/C(C)(C)C)C2C` (mixture of isomers) [Compound A41, (E/Z)-2-(5-((3-(2,6-dimethoxy-4-(2-methyl-1-oxo-1,2-dihydro-2,7-naphthyridin-4-yl)benzyl)-3,6-diazabicyclo[3.1.1]heptan-6-yl)methyl)-1-methyl-1,2,3,4-tetrahydroisoquinoline-2-carbonyl)-4,4-dimethylpent-2-enenitrile], the Dmax at BRD9 [1] (24 h, Table 2, BRD9 degradation (IF), Assay Protocol 2, MV4-11 cells, read-out: Assay 2 DCmax) was in the range of 70 to 75%. Moreover, the DC50 on BRD9 [1] (setting [12]) was 1.25 to 10 nM; at BRD9 [2] (read-out: Assay 1 DC50, Table 2, Assay Protocol 1, 6 h of treatment), 1.25 to 10 nM. Further, the Dmax at 1 µM at BRD9 [2] (Table 2, Assay Protocol 1) was 70 to 75%.

As to `COc1cc(-c2cn(C)c(=O)c(C)c2C)cc(OC)c1CN1CCN(C(=O)[C@@H]2CN(C(=O)/C(C#N)=C/c3ccc(F)cc3)C[C@H]2C2CCCCC2)CC1` [Compound B211], the figures for the Dmax on BRD9 [1] (setting [5]) and on BRD9 [2] (setting [7]) were 50 to 70% and above 70%, respectively. The DC50 at BRD9 [1] (setting [6]) and on BRD9 [2] (setting [8]) was above 200 nM each time.

Consider `COc1cc(-c2cn(C)c(=O)c(C)c2C)cc(OC)c1CN1CCN(C(=O)c2cccc(C3CCCN3C(=O)/C(C#N)=C/c3nccs3)c2)CC1` (centres unmarked) [Compound B23], for which the figures for the DC50 on BRD9 [1] (setting [9]) and at BRD9 [2] (setting [10]) were 1.25 to 10 nM and 10 to 25 nM, respectively. The Dmax on BRD9 [1] (setting [3]) is above 75%; at BRD9 [2] (setting [4]), 70 to 75%.

In the case of `COc1cc(-c2cn(C)c(=O)c(C)c2C)cc(OC)c1CN1CCN(CC(=O)NCCOc2cccc(C3CCCN3C(=O)/C(C#N)=C/c3nccs3)c2)CC1` (mixture of isomers) [Compound B32, (E/Z)—N-(2-(3-(1-(2-cyano-3-(thiazol-2-yl)acryloyl)pyrrolidin-2-yl)phenoxy)ethyl)-2-(4-(2,6-dimethoxy-4-(1,4,5-trimethyl-6-oxo-1,6-dihydropyridin-3-yl)benzyl)piperazin-1-yl)acetamide], the DC50 on BRD9 [1] (setting [9]) and on BRD9 [2] (setting [10]) was 25 to 1000 nM in each case. The Dmax on BRD9 [1] (setting [3]) and on BRD9 [2] (setting [4]) was 40 to 70% throughout.

On to `COc1cc(-c2cn(C)c(=O)c3cnccc23)cc(OC)c1CN(C)CCN(C)Cc1cccc2c1CCN(C(=O)/C(C#N)=C/C(C)(C)C)C2C` (mixture of isomers) [Compound A32, (E/Z)-2-(5-(((2-((2,6-dimethoxy-4-(2-methyl-1-oxo-1,2-dihydro-2,7-naphthyridin-4-yl)benzyl)(methyl)amino)ethyl)(methyl)amino)methyl)-1-methyl-1,2,3,4-tetrahydroisoquinoline-2-carbonyl)-4,4-dimethylpent-2-enenitrile], for which the Dmax at BRD9 [1] (setting [11]) was in the range of 40 to 70%. In addition, the DC50 at BRD9 [1] (setting [12]) was below 1.25 nM; at BRD9 [2] (setting [13]), 10 to 25 nM. In addition, on BRD9 [2] (Table 2, Assay Protocol 1), the Dmax at 1 µM lay within 40 to 70%.

As for `COc1cccc(/C=C(\C#N)C(=O)N2CC3CC2CN3Cc2c(OC)cc(-c3cn(C)c(=O)c(C)c3C)cc2OC)n1` (mixture of isomers) [BRD9k, (E/Z)-2-(5-(2,6-dimethoxy-4-(1,4,5-trimethyl-6-oxo-1,6-dihydropyridin-3-yl)benzyl)-2,5-diazabicyclo[2.2.1]heptane-2-carbonyl)-3-(6-methoxypyridin-2-yl)acrylonitrile], at BRD9 [1] (setting [5]), the Dmax fell in the range of 50 to 70%. Also, the DC50 on BRD9 [1] (setting [6]) and on BRD9 [2] (setting [8]) was below 25 nM each time.
